Results reported in patent US20230094922A1, “METHODS OF THERAPEUTIC PROGNOSTICATION” (GENETIKAPLUS LTD., priority 2020, published 2023).

System: iPSC-derived cortical neurons
Test: Pre- and post-synaptic marker (Synapsin, PSD95) puncta and colocalization imaging analysis
Assay type: cell-based, human
Conditions: for intact synapses (colocalization of pre- and post-synaptic terminals), treated vs untreated: 7 days after treatment (Bupropion also 3 days)
Experimental: iPSC differentiation into neurons-iPSCs were seeded at a density of 3×10^6 cells/well on a hESC-qualified Matrigel pre-coated 6-well plate and incubated at 37° C., 5% CO2 overnight. Differentiation was initiated the following day (day 0) after verifying that 100% confluency was reached. Differentiation media was added daily according to the following order: […]7 (day 15 onward) similar to a previously published protocol developed by for rapid differentiation to cortical neurons. The components of the described media, Q1-7, are provided in Appendix 1. Cells were assessed for differentiation efficiency and cell death on a daily basis. On day 9, differentiated neurons were re-plated on either 96-well plates (destined for staining) or 12-well plates (destined for RNA extraction) that were coated with 15 μg/mL Poly-ornithine diluted in PBS (overnight incubation at 37° C.), followed by 1 μg/mL Laminin and 2 μg/mL Fibronectin diluted in PBS (overnight incubation at 37° C.): Neurons were first rinsed with pre-warmed PBS and 1 ml/well of Accutase was added for 35 minutes at 37° C., 5% CO2. DNAse1 (0.5 mg/mL) was then added for 10 additional minutes. 3 ml of pre-warmed Neurobasal media was added to each well and neurons were gently collected using a 5 ml […]. Wells were then verified for the presence of any remaining neurons. Neurons were spun down and resuspended in Q6 media. Neurons were seeded at a density of 150,000 cells/cm^2 placed back at 37° C. Following four hours of incubation, media was changed to Q6 media (150 μl per 96-well and 1 ml per 12-well). […] For dendritic arborization analysis, pre/post-synaptic markers and colocalization analysis; α-Syn, PSD95 and MAP2 primary antibodies were used. Following washes, fluorophore-coupled secondary antibodies were incubated in the blocking solution for 1 hour at room temperature. The cells were counter-stained with 4',6-diamidino-2-phenylindole (DAPI) for nuclei detection for 15 minutes at room temperature followed by washes with PBS. Imaging was performed using Nikon Spinning Disk Confocal microscope. For imaging of pre- and post-synaptic markers, images were acquired with a 100× objective in z-stacks. For dendritic arborization analysis, images were acquired with a 20× objective in z-stacks. For imaging of dendritic spines, during culture treatment described in materials and methods, cells were infected at Day 20 with human syn-GFP or mKate virus and stained for GFP or mKate. Cells were fixed as described at day 35 and stained with antibodies against GFP or mKate respectively. Images were acquired using the Nikon Confocal Alit with a 60× objective and a 2× digital zoom in z-stacks and using the Nikon spinning disk Microscope with a 100× objective in z-stacks. Neuronal and synaptic morphology was assessed using the Neurolucida software, pre- and post-synaptic marker analysis was performed using CellProfiler and total dendritic length was measured using Fiji software. Immunohistochemical examination was carried out on the induced neuronal cells.

SMILES: CNCCC=C1c2ccccc2CCc2ccccc21 [Nortriptyline, 1-Propanamine, 3-(10,11-dihydro-5H-dibenzo[a,d]cyclohepten-5-ylidene)-N-methyl-]
- density of post-synaptic terminals (PSD95 puncta), responders vs non-responders (after treatment): increase in density was also present
- intact synapses, responders vs non-responders (after treatment): significantly more intact synapses
- intact synapses (colocalization of pre- and post-synaptic terminals), treated vs untreated (neurons from non-responders): no change or even a slight decrease
- density of post-synaptic terminals (distance between PSD95 puncta), after vs before treatment (neurons from responders, 7 days after treatment): significant increase in density
- intact synapses (colocalization of pre- and post-synaptic terminals), treated vs untreated (neurons from responders): significantly upregulated
